{
  "source": "patent US20260021122A1",
  "about": "“CANNABINOIDS AND USES THEREOF IN TREATMENT OF A DISEASE” (TECHNION RESEARCH & DEVELOPMENT FOUNDATION LIMITED, priority 2022, published 2026)",
  "key": {"BM-MDSCs": {"test_system": "BM-MDSCs", "experiment": "iNOS and Arg-1 expression by BM-MDSC subpopulations (flow cytometry, western blot)", "assay_type": "cell-based, mice", "procedure": "Bone-marrow-derived cells (BMDCs) were isolated from the fibula and tibia bones of healthy female WT C57BL/6 mice (8-12-week-old). Red blood cells were removed by using red blood lysis buffer (Biological industries, Cat #01-888-1B). Remaining cells were counted and 1×10^6 cells were seeded in complete RPMI (Sigma, Cat #R8758) containing 10% FBS (Sigma, Cat #F7524), 1% L-Glutamine (Sartorius, Cat #03-020-1B), 1% Penicillin/[…] (Sartorius, Cat #03-031-1B), 1% MEM-Eagle (Sartorius, Cat #01-340-1B), 2.5% HEPES (Sartorius, Cat #03-025-1B) and 1% sodium pyruvate (Sartorius, Cat #03-042-1B) and supplemented with 20 ng/ml of GM-CSF and IL-6 (R&D systems, 415-ML and 406-ML). Cells were incubated at 37° C. and 5% CO2 for 4 days and then treated with conditioned media, which was the media collected from B16F10 cells treated with either DMSO, CBG, or the high-CBG extract 3704 as indicated.\nTo differentiate the subpopulation of myeloid cells, BMDCs and myeloid cells from tumors were stained for the extracellular makers Ly6C-BV421 (BioLegend, Clone HK1.4; Cat #128032) or Ly6C-FITC (BioLegend, Cat #128096, Clone HK1.4), Ly6G-APC (BioLegend, Clone 1A8; Cat #127614), Ly6G-BV421 (BioLegend, Cat #127627, clone 1A8), PECy7-F4/80 (BioLegend, Clone BM8 Cat #123113), BV605-CD86 (BioLegend, Clone GL-1, Cat #105037), APC-CD206 (Biolegend, Clone CO68C2, Cat #141708) and BV711-CD45 (BioLegend, Clone 30F11, Cat #103147). Cells from tumors were also stained with PE-CD3+ (BioLegend, Clone 17A2, Cat #100206) to identify the overall T-cell population. To characterize the cells in the subpopulations, cells were fixed and permeabilized with the Intracellular Fixation and Permeabilization Buffer Set (eBioscience Cat #88-8824-00) and stained with FITC-iNOS (Thermo, Clone CXNFT, Cat #53592082) or FITC-Arginase-1 (Thermo, Clone AlexF5, Cat #53-3697-82). These cells were also stained with Fixable viability Dye (FVD)-eflour 780 (Thermo, Cat #65086514) to exclude dead cells.\nTo analyze the two subpopulations of BM-MDSCs, the cells were stained with Ly6C-BV421 and Ly6G-APC and sorted into MO-MDSC or PMN-MDSC using the BD FACSAria III Cell Sorter instrument (BD Biosciences). Directly after sorting, the two separate subpopulations were co-cultured with CD8+ T-cells or lysed and further analyzed via western blot.\nB16F10 cells, and sorted MO-MDSC and PMN-MDSC achieved as described, were lysed in RIPA buffer (Sigma, Cat #R0278) supplemented with Protease/Phosphatase Inhibitor Cocktail (Cell signaling, Cat #5872S) on ice for 20 minutes. Total protein concentrations were measured using the detergent-compatible protein assay (Bio-Rad, Cat #5000113 and 5000114) and equal amounts were loaded onto a 4%-20% gradient gel (Invitrogen, Cat #XPO4202) and semidry transferred into a nitrocellulose membrane (Bio-Rad, Cat #1704159). The membrane was incubated with the primary antibodies CSF-1 (Santa Cruz; Clone D-4; #sc-365779), iNOS (Abcam; Clone #ab15323) or GAPDH (Cell Signaling Technology, Cat #14C10). Secondary antibodies used in this study were HRP-conjugated and the membranes were developed with the ECL detection kit (Millipore, Cat #WBLUR)."}, "B16F10 tumors": {"test_system": "B16F10 tumors", "experiment": "Mouse tumor model: B16F10 cells transplanted subcutaneously, tumor volume and weight", "assay_type": "in vivo, mice", "conditions": "CBG 2.5 mg/kg or 3704 3.75 mg/kg intraperitoneally", "procedure": "All procedures involving animals were conducted in accordance with the standards approved by the Technion Animal Care and Use Ethics Committee and the studies adhered to the Technion Code for Experimentation on Animals. To induce tumors, B16F10 cells grown to a confluency of ˜75% were resuspended to a concentration of 1×10^6 cells in 200 ul sterile PBS and transplanted subcutaneously into the right flank of 8-10-week-old female WT C57B6/L mice (Envigo, 16.8±0.78 g). After either 24 hours or 3 days, mice were randomly divided into groups and treated as indicated with either a vehicle of Cannabis extract solvent (18:1:1 ratio of DDW+0.9% NaCl, Sigma, Cat #S7653; Cremophor® EL, Cat #238470; Ethanol, Sigma, #Cat 111727), CAN (100 mg/kg), synthetic CBG (2.5 mg/kg) or 3704 (3.75 mg/kg) for 5 days, then 2 days off and again for 4 days. Tumor volume was measured from day 10 to 14 (endpoint) using a vernier caliper and calculated according to the formula […] and all tumors were weighed at the endpoint of the experiments with an analytical scale."}, "CSF-1": {"test_system": "CSF-1", "experiment": "ELISA of secreted CSF-1 in media of A375 cells", "assay_type": "cell-based, human", "conditions": "1.5 μg/ml CBG, 2 μg/ml 3704, 6 μg/ml CAN", "procedure": "The media from B16F10 and A375 cell lines, or homogenates from B16F10 tumors, that were treated as indicated for 24 hours, were collected and the protein concentration of MCP-1, MIP-2, C-C Motif Chemokine Ligand 5 (CCL5), and CSF-1 were measured by Quantikine Mouse M-CSF Immunoassay solid-phase ELISA kit (R&D systems, Cat #MMC00) as described in the manufacture's protocol."}, "[1]": {"conditions": "CM of treated B16F10 vs CM of DMSO-treated B16F10, 24 hours, flow cytometry"}},
  "data": [
    {"smiles": "CCCCCc1cc(O)c(C/C=C(\\C)CCC=C(C)C)c(O)c1", "note": "[CBG, cannabigerol]", "values": [
      {"measurement": "iNOS expression by western blot in sorted subsets", "setting": "BM-MDSCs; CM from treated B16F10 vs CM of DMSO-treated B16F10, sorted MO-MDSC and PMN-MDSC", "value": "reduction of iNOS expression specifically in MO-MDSCs"},
      {"measurement": "iNOS expression by MO-MDSC", "setting": "BM-MDSCs; [1]", "value": "significantly decreased iNOS expression"},
      {"measurement": "iNOS expression by PMN-MDSC", "setting": "BM-MDSCs; [1]", "value": "did not detect a significant decrease in iNOS expression"},
      {"measurement": "Arg-1 expression in MO-MDSCs and PMN-MDSCs", "setting": "BM-MDSCs; CM of treated B16F10 vs CM of DMSO-treated B16F10, 24 hours, flow cytometry, neither subpopulation", "value": "did not detect a significant difference in Arg-1 expression"},
      {"measurement": "iNOS expression in directly treated BM-MDSCs (each subpopulation)", "setting": "BM-MDSCs; medium from untreated B16F10 together with 2 g/ml CBG or 6 μg/ml 3704 for 24 hours, vs DMSO", "value": "did not detect any significant differences"},
      {"measurement": "Tumor weight on day 14 compared to vehicle", "setting": "B16F10 tumors; nine injections", "value": "weighed significantly less"},
      {"measurement": "Tumor volume compared to the vehicle-treated group", "setting": "B16F10 tumors; nine injections from day 3, measured daily day 10 to 14", "value": "significantly lower in the CBG-treated group already at day 12"},
      {"measurement": "CSF-1 secretion by A375 cells", "setting": "CSF-1", "value": "reduced CSF-1 secretion"}
    ]}
  ]
}
